Consider 7 molecules from ChEMBL document CHEMBL1137937, “Synthesis and pharmacological evaluation of prenylated and benzylated pterocarpans against snake venom” (2004).

Format in all cases: functional
Assay [1] is filed under the species Mus musculus. Description: Inhibition of the increase of the rate of CK release induced by […] of Bothrops jararacussu venom on isolated EDL mouse muscles after 60 min of exposure at 0.1-30 uM.
Assay [2] is filed under the species Mus musculus. The assay can be described thus: Inhibition of the increase of the rate of CK release induced by […] of Bothrops jararacussu venom on isolated EDL mouse muscles after 60 min of exposure at 10-30 uM.
The species entered for assay [3] is Mus musculus. Description: Inhibition of the increase of the rate of CK release induced by […] of Bothrops jararacussu venom on isolated EDL mouse muscles after 60 min of exposure at 0.1-1.0 uM.
The species named for assay [4] is Mus musculus. The assay can be described thus: Inhibition of the increase of the rate of CK release induced by […] of Bothrops jararacussu venom on isolated EDL mouse muscles after 60 min of exposure at 0.1-10 uM.

Some results are limits rather than exact numbers.

A word on the Inhibition: it is the relative decrease from the control value, in per cent. Higher therefore signals strong suppression. Take `CC(C)=CCc1c2c(cc3c1O[C@H]1c4ccc(O)c(CC=C(C)C)c4OC[C@@H]31)OCO2`: the Inhibition in assay [1] is reported as 0%.

For the molecule `CC(C)=CCc1c(O)ccc2c1OC[C@H]1c3cc4c(cc3O[C@@H]21)OCO4`, the Inhibition is 0% in assay [2] and more than 40% in assay [3].

`Oc1ccc2c(c1Cc1ccccc1)OC[C@H]1c3cc4c(c(Cc5ccccc5)c3O[C@@H]21)OCO4`: the Inhibition in assay [1] amounted to 0%.

In turn, `Oc1ccc2c(c1)OC[C@H]1c3cc4c(c(Cc5ccccc5)c3O[C@@H]21)OCO4` showed an Inhibition in assay [1] of 0%.

The molecule `Oc1ccc2c(c1)OC[C@H]1c3cc4c(cc3O[C@@H]21)OCO4` [MAACKIAIN] showed an Inhibition in assay [1] of 0%.

In assay [4], `Oc1ccc2c(c1Cc1ccccc1)OC[C@H]1c3cc4c(cc3O[C@@H]21)OCO4` gave an Inhibition of more than 70%.

Take `CC(C)=CCc1c2c(cc3c1O[C@H]1c4ccc(O)cc4OC[C@@H]31)OCO2`: the Inhibition in assay [1] was found to be 0%.
